From US20260209152A1, “Substituted Hydroxystilbene Compounds and Derivatives, Synthesis and Uses Thereof” (Kynan Duke IP, LLC, priority 2019, published 2026)
Read-outs that look alike come from different tables or passages of the source.

What was measured:
Test in all cases: CellTiter Glo cell viability assay
Type in all cases: cell-based, human
[1] = test system: Liver SNU-475; conditions: for IC50: Homo sapiens, SNU-475, 72 h, 3 Days of treatment, 18 2-fold dilutions 5-0.00003 μM
In short: (§1)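 Cells seeded at 1.7*10^3/well in quadruplicate; compounds at 18 two-fold dilutions from 5 μM (0.000038146-5 μM), or at 1, 2, 5, 10 and 20 μM. CellTiter Glo luminescence read on days 1, 3 and 5 after treatment. IC50 by nonlinear regression of luminescence versus log dose.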

[2] = test system: Osteosarcomas SJSA_1; conditions: for IC50: Homo sapiens, SJSA-1, 72 h, 3 Days of treatment, 18 2-fold dilutions 5-0.00003 μM
In short: as §1

[3] = test system: Lung NCI-H661; conditions: for IC50: Homo sapiens, NCI-H661, 72 h, 3 Days of treatment, 18 2-fold dilutions 5-0.00003 μM
In short: as §1

[4] = test system: Osteosarcomas U2OS; conditions: for IC50: Homo sapiens, U2OS, 72 h, 3 Days of treatment, 18 2-fold dilutions 5-0.00003 μM
In short: as §1

[5] = test system: Connective Tissue Sarcoma TE 381.T; conditions: for IC50: Homo sapiens, TE 381.T, 72 h, 3 Days of treatment, 18 2-fold dilutions 5-0.00003 μM
In short: as §1

[6] = test system: Rhabomyosarcoma CCL 166; conditions: for IC50: Homo sapiens, 72 h, 3 Days of treatment, 18 2-fold dilutions 5-0.00003 μM
In short: as §1

[7] = test system: Osteosarcomas T1-73; conditions: for IC50: Homo sapiens, 72 h, 3 Days of treatment, 18 2-fold dilutions 5-0.00003 μM
In short: as §1

[8] = test system: Osteosarcomas HOS_CRL_1543; conditions: for IC50: Homo sapiens, 72 h, 3 Days of treatment, 18 2-fold dilutions 5-0.00003 μM
In short: as §1

[9] = test system: Pancreatic CFPAC; conditions: for IC50: Homo sapiens, 72 h, 3 Days of treatment, 18 2-fold dilutions 5-0.00003 μM
In short: as §1

[10] = test system: Tongue SCC-15; conditions: for IC50: Homo sapiens, SCC-15, 72 h, 3 Days of treatment, 18 2-fold dilutions 5-0.00003 μM
In short: as §1

[11] = test system: Tongue SCC-25; conditions: for IC50: Homo sapiens, SCC-25, 72 h, 3 Days of treatment, 18 2-fold dilutions 5-0.00003 μM
In short: as §1

[12] = test system: Leiomyosarcoma SK-UT-1B; conditions: for IC50: Homo sapiens, Skut1B, 72 h, 3 Days of treatment, 18 2-fold dilutions 5-0.00003 μM
In short: as §1

[13] = test system: Pancreatic CAPAN-1; conditions: for IC50: Homo sapiens, CAPAN-1, 72 h, 18 2-fold dilutions 5-0.00003 μM
In short: as §1

[14] = test system: Liver JHH-6; conditions: for IC50: Homo sapiens, 72 h, 3 Days of treatment, 18 2-fold dilutions 5-0.00003 μM
In short: as §1

[15] = test system: Osteosarcomas Hs888.T; conditions: for IC50: Homo sapiens, 72 h, 3 Days of treatment, 18 2-fold dilutions 5-0.00003 μM
In short: as §1

[16] = test system: Lung BEAS-2B; conditions: for IC50: Homo sapiens, BEAS-2B, 72 h, 3 Days of treatment, 18 2-fold dilutions 5-0.00003 μM
In short: as §1

[17] = test system: Liver Huh7; conditions: for IC50: Homo sapiens, Huh-7, 72 h, 3 Days of treatment, 18 2-fold dilutions 5-0.00003 μM
In short: as §1

[18] = test system: Kidney SK-NEP-1; conditions: for IC50: Homo sapiens, SK-NEP-1, 72 h, 3 Days of treatment, 18 2-fold dilutions 5-0.00003 μM
In short: as §1

[19] = test system: Osteosarcomas KHOS_N/P; conditions: for IC50: Homo sapiens, KHOS/NP, 72 h, 3 Days of treatment, 18 2-fold dilutions 5-0.00003 μM
In short: as §1

[20] = test system: Bladder J82; conditions: for IC50: Homo sapiens, 72 h, 3 Days of treatment, 18 2-fold dilutions 5-0.00003 μM
In short: as §1

[21] = test system: Kidney HTB-45; conditions: for IC50: Homo sapiens, 72 h, 3 Days of treatment, 18 2-fold dilutions 5-0.00003 μM
In short: as §1

[22] = test system: Breast MCF7; conditions: for IC50: Homo sapiens, MCF7, 72 h, 3 Days of treatment, 18 2-fold dilutions 5-0.00003 μM
In short: as §1

[23] = test system: Pancreatic HPAC; conditions: for IC50: Homo sapiens, HPAC, 72 h, 3 Days of treatment, 18 2-fold dilutions 5-0.00003 μM
In short: as §1

[24] = test system: Bladder RT-112; conditions: for IC50: Homo sapiens
In short: as §1

[25] = 3 Days of treatment, read-out: Average IC50
[26] = Table 4: 3 Days of treatment, Average (1, 8) or single Exp A-D, read-out: IC50
[27] = RT-112, 72 h, 3 Days of treatment, 18 2-fold dilutions 5-0.00003 μM, read-out: Average IC50
[28] = RT-112, 72 h, Table 4: 3 Days of treatment, 18 2-fold dilutions 5-0.00003 μM, Average (1, 8) or single Exp A-D, read-out: IC50
[29] = RT-112, 120 h, Day 5 upon drug treatment, 10 dosages 0.0001-20 μM (Compound 8: 18 dosages 0.000038146 to 5 μM), read-out: IC50
[30] = IC50 of 1 [KYN-001] vs 8 [KYN-119], 3 Days

COc1cc(/C=C/c2cc(O)cc(OC)c2CC=C(C)C)ccc1O [Compound 1, (E)-3-(4-hydroxy-3-methoxystyryl)-5-methoxy-4-(3-methylbut-2-en-1-yl)phenol]
IC50 [1]: 239 nM
IC50 [2]: 2300 nM
IC50 [3]: 36.6 nM
IC50 [4]: 325 nM
IC50 [5]: 35.7 nM
IC50 [6]: 96 nM
IC50 [7]: 804 nM
IC50 [8]: 358 nM
IC50 [9]: 492 nM
IC50 [10]: 17 nM
IC50 [11]: 744 nM
IC50 [12]: 22.6 nM
IC50 [13, 25]: 6220 nM
IC50 [13, 26]: 1460 nM
IC50 [14]: 172 nM
IC50 [15]: 210 nM
IC50 [16]: 76.4 nM
IC50 [17]: 78.9 nM
IC50 [18]: 158 nM
IC50 [19]: 68.7 nM
IC50 [20]: 184 nM
IC50 [21]: 1730 nM
IC50 [22]: 694 nM
IC50 [23]: 4990 nM
IC50 [24, 27]: 52.9 nM
IC50 ([24]; RT-112, 72 h, Day 3 upon drug treatment, 10 dosages 0.0001-20 μM, read-out: IC50): 105 nM
IC50 [24, 28]: 27 nM
IC50 [24, 29]: 28.7 nM

CCOc1cc(O)cc(/C=C/c2ccc(O)c(OC)c2)c1CC=C(C)C [Compound 8, (E)-3-Ethoxy-5-(4-hydroxy-3-methoxystyryl)-4-(3-methylbut-2-en-1-yl)phenol]
IC50 [1]: 32.4 nM
Fold IC50 [1, 30]: 7.4
IC50 [2]: 9580 nM
Fold IC50 [2, 30]: 0.2
IC50 [3]: 11.5 nM
Fold IC50 [3, 30]: 3.2
IC50 [4]: 36.8 nM
Fold IC50 [4, 30]: 8.8
IC50 [5]: 7.5 nM
Fold IC50 [5, 30]: 4.8
IC50 [6]: 6.05 nM
Fold IC50 [6, 30]: 16
IC50 [7]: 3.93 nM
Fold IC50 [7, 30]: 205
IC50 [8]: 32 nM
Fold IC50 [8, 30]: 11
IC50 [9]: 82.4 nM
Fold IC50 [9, 30]: 6.0
IC50 [10]: 14.9 nM
Fold IC50 [10, 30]: 1.1
IC50 [11]: 276 nM
Fold IC50 [11, 30]: 2.7
IC50 [12]: 6.39 nM
Fold IC50 [12, 30]: 3.5
IC50 [13, 25]: 4690 nM
IC50 [13, 26]: 2450 nM
Fold IC50 [13, 30]: 1.3
IC50 [14]: 36.4 nM
Fold IC50 [14, 30]: 4.7
IC50 [15]: 26.1 nM
Fold IC50 [15, 30]: 8.1
IC50 [16]: 15 nM
Fold IC50 [16, 30]: 5.1
IC50 [17]: 20.6 nM
Fold IC50 [17, 30]: 3.8
IC50 [18]: 17.8 nM
Fold IC50 [18, 30]: 8.9
IC50 [19]: 10.5 nM
Fold IC50 [19, 30]: 6.6
IC50 [20]: 46.5 nM
Fold IC50 [20, 30]: 4.0
IC50 [21]: 463 nM
Fold IC50 [21, 30]: 3.7
IC50 [22]: 136 nM
Fold IC50 [22, 30]: 5.1
IC50 [23]: 1970 nM
Fold IC50 [23, 30]: 2.5
IC50 [24, 27]: 3.63 nM
IC50 [24, 28]: 4.09 nM
IC50 [24, 29]: ~5.65 nM
Fold IC50 [24, 30]: 15
